# Results from US5135931A, “Pyridinylpiperazine derivatives” (Akzo N.V., priority 1990, dated 1992).
# Structures can show the parent of a compound that is named as a salt.
# What was measured:
# [1] = target: 5-HT1B (serotonin 1B) receptor (Rattus norvegicus, UniProt P28564); assay: serotonin binding activity, 5-HT1B; settings: average test results; read-out: pKi 5-HT1B (converted)
# Description: (§1) The various compounds of Examples I-VIII were analyzed for serotonin binding activity.
# [2] = target: T1, 5-HT1A (serotonin 1A) receptors (Homo sapiens, UniProt P08908); assay: serotonin binding activity, 5-HT1A; settings: average test results; read-out: pKi 5-HT1A (converted)
# T1 sequence (P08908 1-422): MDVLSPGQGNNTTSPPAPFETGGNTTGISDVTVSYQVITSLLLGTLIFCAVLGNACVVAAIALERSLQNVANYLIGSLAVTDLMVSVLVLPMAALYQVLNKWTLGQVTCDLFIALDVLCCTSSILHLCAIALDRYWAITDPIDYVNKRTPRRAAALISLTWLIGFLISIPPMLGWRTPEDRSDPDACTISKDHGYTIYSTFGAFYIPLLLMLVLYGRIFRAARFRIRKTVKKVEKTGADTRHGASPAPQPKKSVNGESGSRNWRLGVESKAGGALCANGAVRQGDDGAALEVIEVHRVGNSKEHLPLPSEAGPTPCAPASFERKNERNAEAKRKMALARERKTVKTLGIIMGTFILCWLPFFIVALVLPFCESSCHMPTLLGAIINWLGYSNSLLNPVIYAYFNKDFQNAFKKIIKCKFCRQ
# Description: as §1
# Sequence of 5-HT1B (serotonin 1B) receptor (P28564 whole entry): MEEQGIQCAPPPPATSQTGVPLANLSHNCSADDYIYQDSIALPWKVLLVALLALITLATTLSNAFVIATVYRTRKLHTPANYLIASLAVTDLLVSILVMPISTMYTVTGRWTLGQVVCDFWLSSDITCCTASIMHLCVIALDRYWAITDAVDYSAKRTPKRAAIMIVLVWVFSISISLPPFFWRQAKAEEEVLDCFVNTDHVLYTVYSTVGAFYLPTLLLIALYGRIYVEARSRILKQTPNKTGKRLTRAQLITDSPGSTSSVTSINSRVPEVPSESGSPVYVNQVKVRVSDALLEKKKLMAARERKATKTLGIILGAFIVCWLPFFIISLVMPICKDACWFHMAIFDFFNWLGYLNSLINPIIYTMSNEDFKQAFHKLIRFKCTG
Structure (SMILES),Ki [1] [nM],Ki [2] [nM]
O=C(NCCN1CCN(c2cccc(C(F)(F)F)n2)CC1)c1cccnc1 [VI],5010,50.1
"O=C(NCCCCN1CCN(c2cccc(C(F)(F)F)n2)CC1)c1ccccc1 [V, N-[4-[4-[6-(trifluoromethyl)-2-pyridinyl]-1-piperazinyl]butyl]benzamide (E)-2-butenedioate (2:1) salt]",1000,6.31
"O=C(NCCN1CCN(c2cccc(C(F)(F)F)n2)CC1)c1ccc(F)cc1 [Example I, 4-fluoro-N-[2-[4-[6-(trifluoromethyl)-2-pyridinyl]-1-piperazinyl]ethyl]benzamide (E)-2-butenedioate (1:1) salt]",> 10000,1.58
"O=C(NCCN1CCN(c2cc(C(F)(F)F)ccn2)CC1)c1ccc(F)cc1 [III, 4-fluoro-N-[2-[4-[4-(trifluoromethyl) -2-pyridinyl]-1-piperazinyl]ethyl]benzamide (E)-2-butenedioate (1:1) salt]",10000,20
"O=C(NCCCCN1CCN(c2cccc(C(F)(F)F)n2)CC1)c1ccc(F)cc1 [Example IV, 4-fluoro-N-[4-[4-[6-(trifluoromethyl) -2-pyridinyl]-1-piperazinyl]butyl]benzamide (E)-2-butenedioate (2:1) salt]",501,7.94
"CN(CCCN1CCN(c2cccc(C(F)(F)F)n2)CC1)C(=O)c1ccc(F)cc1 [VIII, 4-fluoro-N-[3-[4-(6-(trifluoromethyl)-2-pyridinyl)-1-piperazinyl]propyl]-N-methylbenzamide]",> 10000,63.1
"CN(CCN1CCN(c2cccc(C(F)(F)F)n2)CC1)C(=O)c1ccc(F)cc1 [VII, 4-fluoro-N-[2-[4-(6-(trifluoromethyl)-2-pyridinyl)-1-piperazinyl]ethyl]-N-methylbenzamide]",> 10000,31.6
"O=C(NCCN1CCN(c2cccc(C(F)(F)F)n2)CC1)c1ccccc1 [II, N-[2-[4-[6-(trifluoromethyl)-2-pyridinyl]-1-piperazinyl]ethyl]benzamide (E)-2-butenedioate (1:1) salt]",10000,1
